# Measured values: patent US20080219998A1, “Anti-Thrombotic Agents” (priority 2001, published 2008)
# No end group written: not given here.
# System: intrinsic pathway
# Experiment: activated partial thromboplastin time (APTT) screening coagulation assay
# Format: biochemical
# Conditions: phage expressing the peptide tested; APTT is a standard screening marker of the activity of the intrinsic pathway
# Text: While in vitro or animal testing are not acceptable tools for establishing the safety thus usefulness of drugs, such as anticoagulants, screening compounds for specificity towards factor XI, thus potential utility in the clinic, is an necessary intermediate step in practicing this invention. In such an effort, several FXI-specific peptides have been created using standard phage display technology. […] One example of such a phage is given here. Amino acid sequencing of the peptide expressed by this phage yields Gln-Lys-Met-Gln-His-Gly-Ile-Trp-Asn-Arg-Thr-Ala using standard technology. The phage expressing the peptide is then tested in screening coagulation assays, such as activated partial thromboplastin time (APTT) and prothrombin time (PT). […] This peptide, and other inhibitory compounds with FXI specificity, such as Gln-Gln-Val-Ala-Asn-Trp-Ser-Met-Ser-Pro-Ala, are considered only as examples of intermediate steps in identifying and preparing compounds of this invention that can exclusively reduce FXI activity. Other methods of screening exist.
sequence,measurement,value
"QKMQHGIWNRTA [FXI-specific peptide from phage display, tested as the phage expressing it]",prolongation of APTT,significant prolongation
